These results are taken from patent US6166062A, “Pharmaceutical compositions containing phospholipase inhibitor” (Shionogi & Co., Ltd., priority 1999, dated 2000).

Data set [1] is described as follows: solubility of Compound (I) (statement). Format: physicochemical. The source says:
Storage of a pharmaceutical composition of Compound (I) prepared by known methods may lead to degradation of its content and a coloring and a worsening of its reconstitution properties, especially in the case of injections to be dissolved before use. It is difficult to provide a pharmaceutical composition of Compound (I) which has good stability and a good reconstitution property, especially for injections of Compound (I) to be dissolved before use, after long storage at room temperature.

Data set [2] has as its system human non-pancreatic secretory phospholipase A2 (sPLA2). The note with it: as disclosed in JP-A 7-285933, EP 0 675 110 A1, U.S. Pat. No. 5,654,326; cited from earlier work.
Data set [3] is described as follows: collapse temperature of frozen solutions (freeze dry microscopy). Format: physicochemical. The source says:
The term, "collapse temperature," describes the glass transition temperature for amorphous solids or eutectic temperature for crystalline solids. Collapse temperature is that temperature above which the product is not completely frozen. Freeze dry microscoscropy enables measurement of the temperature at which frozen solutions begin to lose their rigid structure during a sublimation process.

Consider `CCc1c(C(=O)C(N)=O)c2c(OCC(=O)[O-])cccc2n1Cc1ccccc1.[Na+]` [Compound (I), sodium [[3-(2-amino-1,2-dioxoethyl)-2-ethyl-1-(phenylmethyl)-1H-indol-4-yl]oxy]acetate], for which the solubility result in data set [1] was “sparingly soluble”. Also, in data set [2], the “inhibitor against human non-pancreatic secretory phospholipase A2” value is “inhibitor”. The collapse temperature result in data set [3] (after annealing) is “about -13 °C”; in data set [3] (before annealing) it was “about -33 °C”.
